As usually defined, the Ki is the dissociation constant of the complex between target and ligand, obtained from inhibition or displacement. As usually defined, the IC50 is the midpoint of a concentration-inhibition curve. A low value points to greater potency in that assay.

Each structure is given as a SMILES string.

Ki and IC50 data for twelve molecules are collected here from BindingDB's records for doi:10.1021/bi401077f (Weill Cornell Medical College, 2013).

One experiment addresses T1, Dihydrolipoyl dehydrogenase (Mycobacterium tuberculosis (strain ATCC 25618 / H37Rv), UniProt P9WHH9).
T1 sequence (P9WHH9 whole entry): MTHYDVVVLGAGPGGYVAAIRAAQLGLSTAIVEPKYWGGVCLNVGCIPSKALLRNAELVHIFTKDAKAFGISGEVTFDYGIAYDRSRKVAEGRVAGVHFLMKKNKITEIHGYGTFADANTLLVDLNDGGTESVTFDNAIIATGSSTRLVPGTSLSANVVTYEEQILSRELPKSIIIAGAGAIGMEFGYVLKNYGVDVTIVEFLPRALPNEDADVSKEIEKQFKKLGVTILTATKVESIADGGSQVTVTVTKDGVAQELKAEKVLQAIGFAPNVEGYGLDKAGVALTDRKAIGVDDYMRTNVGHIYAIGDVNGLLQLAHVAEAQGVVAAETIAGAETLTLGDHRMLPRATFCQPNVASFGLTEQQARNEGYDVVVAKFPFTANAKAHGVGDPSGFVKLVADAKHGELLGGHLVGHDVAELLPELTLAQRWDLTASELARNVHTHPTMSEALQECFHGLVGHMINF
Put plainly: Enzyme Assays.
In the case of `CN(CC(=O)Nc1ccc(F)c(Cl)c1)S(=O)(=O)c1cc(Br)cnc1N` [SL418], the inhibition constant Ki is 0.333 µM. This lies in the sub-micromolar range.

A further experiment concerns the target T2, Dihydrolipoyl dehydrogenase (Mycobacterium tuberculosis (strain CDC 1551 / Oshkosh), UniProt P9WHH8).
T2 sequence (P9WHH8 whole entry): T1 sequence (P9WHH9 whole entry)
Put plainly: Enzyme Assays.
Regarding `NC(=O)C(=O)NCc1cccnc1` [4031-0653], the midpoint of inhibition, the IC50, lay at 6 µM. In other words, the single-digit micromolar range.

Consider `CC(C)(C)NC(=O)C(=O)NCc1cccnc1` [4031-1995], for which the IC50 stood at 100 µM. Still for that read-out and setting: in the case of `O=C(Nc1ccc(Br)cc1)C1CCC(S(=O)(=O)c2cccnc2)CC1` (stereo not drawn) [C324-0095] it was > 100 µM; in that of `CCN(Cc1ccccc1)C(=O)CN(C)S(=O)(=O)c1cc(Br)cnc1N` [E114-0951], 12.5 µM; in that of `CN1CCN(S(=O)(=O)c2cc(Br)cnc2N)CC1` [E138-2099], > 100 µM. As to `CCCCNS(=O)(=O)c1cc(Br)cnc1N` [E138-2195], the IC50 was > 100 µM. In turn, `CN(Cc1ccccc1)C(=O)CN(C)S(=O)(=O)c1cc(Br)cnc1N` [E144-0828] had an IC50 of 34 µM. For `CCCCN(C)C(=O)CCNS(=O)(=O)c1cc(Br)cnc1N` [E199-0112], the IC50 was > 100 µM. Consider `Nc1ncc(Br)cc1S(=O)(=O)NCCC(=O)Nc1cccc(Cl)c1` [K906-3123], for which the IC50 is > 100 µM.

Take `Cc1cc(NC(=O)CN(C)S(=O)(=O)c2cc(Br)cnc2N)ccc1Br` [K906-3584]: the concentration for half-maximal inhibition (IC50) was < 0.1 µM. The same measure, in the same setting: the same measure for `CC1CCCCC1NC(=O)CN(C)S(=O)(=O)c1cccc2cccnc12` (stereo not drawn) [N-(2-methylcyclohexyl)-2-[methyl(quinolin-8-ylsulfonyl)amino]acetamide]: > 100 µM. Turning to `CN(CC(=O)Nc1ccc(F)c(Cl)c1)S(=O)(=O)c1cc(Br)cnc1N` [SL418], affinity was put at a Ki of 0.143 µM.
